Columns and labels:
[1] = In vivo rat study of iontophoresis delivery on dorsal back skin: tissue and plasma drug concentrations; conditions: for Drug concentration in the skin: delivered drug (prodrug or ketoprofen); for Concentration of ketoprofen converted from the prodrug in the skin: number in bracket
Protocol: (§1) The anode iontophoresis of ketoprofen cationic prodrugs KCE, KME and cathode iontophoresis of ketoprofen were compared with an in vivo rat study for evaluation of drug penetration into deep tissues. […] A prodrug solution was loaded in the cell. A constant current of 0.4 mA/cm^2 for iontophoresis was applied for 6 hours. At the end of the iontophoresis delivery, the rats were euthanized. The skin of the application site (under the glass cell) was washed with water, tape stripped once to remove residue drug on skin, and then dissected with a biopsy punch for the tissue layers: epidermis and dermis layer (depth 0-3 mm), subcutaneous tissue (fat pad) (3-4 mm), shallow muscle layer (4-6 mm), and deep muscle (6-10 mm). The tissues from the contralateral site were dissected with the same method. In addition, the plasma blood samples were obtained right before the experiment (time 0) and each hour during the experiment. The drug concentrations in the tissue and plasma samples were analyzed with a HPLC.
as §1, with “cationic prodrugs and cathode” for “cationic prodrugs KCE, KME and cathode”, “ketoprofen were also compared with” for “ketoprofen were compared with”, “rat study at 0.4 mA/cm^2 for a shorter duration of 2 hours for evaluation” for “rat study for evaluation”, “applied for 2 hours. At” for “applied for 6 hours. At”
as §1, with “cationic prodrugs and cathode” for “cationic prodrugs KCE, KME and cathode”, “ketoprofen were also compared with” for “ketoprofen were compared with”, “rat study at 0.057 mA/cm^2 for a duration of 6 hours for evaluation” for “rat study for evaluation”, “current of 0.057 mA/cm^2 for” for “current of 0.4 mA/cm^2 for”, “with a HPLC” for “with a HPLC.”
KPE is a prodrug of ketoprofen but with two methyl groups on the nitrogen atom, instead of three methyl groups on the nitrogen atom like KCE and KME. KPE can be presented as a hydrochloride salt. […] Anode iontophoresis delivery of KPE in this aqueous solution at 0.4 mA/cm^2 for a shorter duration of 2 hour was also conducted with the in vivo rat study.

[2] = In-vitro side-by-side diffusion cell study, iontophoresis across human epidermis skin; assay type: in vitro ADME; conditions: KCE 26.6 μmol/ml, PE 4.9 μmol/ml, 0.2 mA
Text: The efficiency in anode iontophoresis delivery of KCE and that in cathode iontophoresis delivery of ketoprofen were compared with an in-vitro side-by-side diffusion cell study. […] The human cadaver epidermis skin was sandwiched between the two half cells with stratum corneum face the donor chamber. For anode iontophoresis of KCE, KCE chloride salt solution (26.6 μmol/ml) was placed in the donor cell. For cathode iontophoresis of ketoprofen (Kt), […] solution (26.6 μmol/ml) was placed in the donor cell. Phosphate buffer solution (0.15 M at pH 7.4) was placed in the receiver chamber. Constant current 0.2 mA was applied to the diffusion cell. The amount of drug penetrated through the skin was collected in the receive chamber and analyzed with a HPLC. The anode iontophoresis of the cationic prodrug KCE delivered 4 times more drug across the skin than that delivered by the cathode iontophoresis of ketoprofen (see FIG. 4A) from the in-vitro study.
Anode iontophoresis of the cationic ketoprofen prodrug KCE (26.6 μmol/ml) with the presence of phenylephrine (PE) (4.9 μmol/ml) in solution was evaluated with an in-vitro diffusion cell study across a human epidermis skin.

melanoma cell (A375) = assay: In vitro cell viability assay on melanoma cell growth; assay type: cell-based; conditions: A375 cells, read-out: 50% inhibition concentration (IC50) on melanoma cell (A375) growth
Text: The drug concentrations in the skin after the iontophoresis delivery of those prodrugs or their parent drug ketoprofen from different iontophoresis conditions are summarized in Table 2. The high drug concentration in the skin can be used for treatment of skin diseases including skin cancers such as melanoma. […] The ketoprofen concentrations in the skin from the iontophoresis delivery was not higher than its IC50 against the melanoma cell growth, but the KCE and KME concentrations in the skin from the anode iontophoresis delivery were higher than their IC50 against the melanoma cell growth. Thus, the anode iontophoresis of the prodrugs can provide high drug accumulation in the skin, and such high drug accumulation in the skin can be used for skin disease treatment.

[3] = iontophoresis 0.4 mA/cm^2 for 2 hrs
[4] = iontophoresis 0.057 mA/cm^2 for 6 hrs
[5] = iontophoresis 0.4 mA/cm^2 for 6 hrs

With `CC(C(=O)OCCCN(C)C)c1cccc(C(=O)c2ccccc2)c1.Cl` (centres unmarked) [KPE] as the compound, how does the Plasma drug concentration ([1]; 0.4 mA/cm^2 for 2 hours) read?
Its Plasma drug concentration is “lower than that from iontophoresis of Kt”.

And the “Tissue drug concentrations / direct penetration at the application site” value ([1]; 0.4 mA/cm^2 for 2 hours)?
Its value is “Higher drug concentrations in the tissues at the drug application site than those from the contralateral site”.

What about the “Drug concentration in the skin” value [1, 3] of the same compound?
Its value is 1883 μmol per kilogram of skin.

What about the “Concentration of ketoprofen converted from the prodrug in the skin” value (shortened to “Concentration of ketoprofen converted”) [1, 3] of the same compound?
Its value is 736 μmol per kilogram of skin.

Which “Amount penetrated across the skin by anode iontophoresis, KCE alone versus KCE with phenylephrine” value [2] does the source give for `CNC[C@H](O)c1cccc(O)c1` [PE, phenylephrine, reference compound] here?
Its value is “Significant amount of PE was also delivered across the skin”.

Which “Plasma and contralateral tissue drug concentration” value ([1]; 0.057 mA/cm^2 for 6 hours) does the source give for `CC(C[N+](C)(C)C)OC(=O)C(C)c1cccc(C(=O)c2ccccc2)c1.[Cl-]` (stereo not drawn) [KME, Ketoprofen β-methylcholine ester chloride salt] here?
The value was “we can detect the parent drug Kt in the plasma and also in the contralateral tissue”.

What about the “Tissue drug concentrations / direct penetration at the application site” value ([1]; 0.057 mA/cm^2 for 6 hours) of the same compound?
The value was “direct penetration into deep tissues that is up into the deep muscles”.

And the “Drug in tissues at the contralateral site” value ([1]; 0.4 mA/cm^2 for 2 hours)?
The value was “no ketoprofen or KME was detected in the tissues at the contralateral site”.

And the Plasma drug concentration ([1]; 0.4 mA/cm^2 for 2 hours)?
Its Plasma drug concentration is “no ketoprofen or KME in rat plasma was detected”.

And the “Tissue drug concentrations / direct penetration at the application site” value ([1]; 0.4 mA/cm^2 for 2 hours)?
Its value is “direct penetration into deep tissues and prodrug retaining in the tissues of the application site”.

And the “Drug in tissues at the contralateral site” value ([1]; 0.4 mA/cm^2 for 6 hours)?
Its value is “No prodrug or Kt was detected in the contralateral tissues”.

What about the Plasma drug concentration ([1]; 0.4 mA/cm^2 for 6 hours) of the same compound?
Its Plasma drug concentration is “No prodrug or Kt was detected in the plasma”.

And the “Tissue drug concentrations / direct penetration at the application site” value ([1]; 0.4 mA/cm^2 for 6 hours)?
Its value is “High prodrug KME concentrations in the tissues of the drug application”.

What about the “Drug concentration in the skin” value [1, 4] of the same compound?
The value was 3725 μmol per kilogram of skin.

And the “Concentration of ketoprofen converted” value [1, 4]?
The value was 73 μmol per kilogram of skin.

What about the “Drug concentration in the skin” value [1, 3] of the same compound?
The value was 6128 μmol per kilogram of skin.

And the “Concentration of ketoprofen converted” value [1, 3]?
The value was 35 μmol per kilogram of skin.

What about the “Drug concentration in the skin” value [1, 5] of the same compound?
The value was 34768 μmol per kilogram of skin.

What about the “Concentration of ketoprofen converted” value [1, 5] of the same compound?
The value was 449 μmol per kilogram of skin.

And the IC50 (melanoma cell (A375))?
The IC50 was 1.55 mM.

— US20150297718A1, “ION[…] OF CATIONIC PRODRUGS FOR TOPICAL TREATMENT OF MUSCU[…] SKIN DISEASES” (priority 2014, published 2015)
